Calls of active or inactive are those of the source.
Key:
Mus musculus [1] = experiment: Antiedematogenic effect in Swiss mouse assessed as inhibition of CFA-induced paw edema at 300 mg/kg, po after 2 hrs; type: functional
Mus musculus [2] = experiment: Antihyperalgesic effect in Swiss mouse assessed as inhibition of CFA-induced paw withdrawal threshold at 300 mg/kg, po after 2 hrs; type: functional
Mus musculus [3] = experiment: Antihyperalgesic effect in Swiss mouse assessed as inhibition of CFA-induced paw withdrawal threshold at 300 mg/kg, po after 0.5 to 6 hrs; type: functional, organism-based
Mus musculus [4] = experiment: Antihyperalgesic effect in po dosed Swiss mouse assessed as inhibition of CFA-induced paw withdrawal threshold after 2 hrs; type: functional
Mus musculus [5] = experiment: Antiedematogenic effect in Swiss mouse assessed as inhibition of CFA-induced paw edema at 300 mg/kg, po after 1 to 6 hrs; type: functional, organism-based
Mus musculus [6] = experiment: Locomotor activity in Swiss mouse assessed as motor impairment at 300 mg/kg, po by open-field test; type: toxicity, organism-based; settings: in vivo
Mus musculus [7] = experiment: Locomotor activity in Swiss mouse assessed as motor impairment at 300 mg/kg, po by rotarod test; type: toxicity, organism-based; settings: in vivo

SMILES | inhibition in vivo at 300 mg/kg (Mus musculus [1]) | inhibition in vivo at 300 mg/kg (Mus musculus [2]) | inhibition (Mus musculus [3]) | IC (Mus musculus [4]) | inhibition (Mus musculus [5]) | Activity (Mus musculus [6]) | Activity (Mus musculus [7]) | inhibition (Mus musculus [2])
Cc1ccc(-c2cc(C(F)(F)F)nn2-c2ccc(S(N)(=O)=O)cc2)cc1 [CELECOXIB] | 53% | 77% | Active | 652.1 mg/kg |  |  |  | 
Cc1ccc(C2=NN(c3ccc(S(N)(=O)=O)cc3)C(O)(C(F)(F)F)C2)cc1 (stereo not drawn) | 45% | 64% | Active | 539.3 mg/kg | Active | Non-toxic | Non-toxic | 
NS(=O)(=O)c1ccc(N2N=C(c3ccccc3)CC2(O)C(F)(F)F)cc1 (stereo not drawn) | 44% | 52% |  |  |  | Non-toxic | Non-toxic | 
NS(=O)(=O)c1ccc(N2N=C(c3ccc(Br)cc3)CC2(O)C(F)(F)F)cc1 (stereo not drawn) | 46% | 57% |  |  |  | Non-toxic | Non-toxic | 
COc1ccc(C2=NN(c3ccc(S(N)(=O)=O)cc3)C(O)(C(F)(F)F)C2)cc1 (stereo not drawn) | 46% |  |  |  |  | Non-toxic | Non-toxic | inactive
NS(=O)(=O)c1ccc(N2N=C(c3ccc(Cl)cc3)CC2(O)C(F)(F)F)cc1 (stereo not drawn) |  | 57% |  |  |  | Non-toxic | Non-toxic | 
NS(=O)(=O)c1ccc(N2N=C(c3ccc(F)cc3)CC2(O)C(F)(F)F)cc1 (stereo not drawn) |  | 62% |  |  |  | Non-toxic | Non-toxic | 
NS(=O)(=O)c1ccc(N2N=C(c3ccco3)CC2(O)C(F)(F)F)cc1 (stereo not drawn) | 48% |  |  |  |  | Non-toxic | Non-toxic | inactive

Source: ChEMBL document CHEMBL3612022, “Regioselectively controlled synthesis of 3(5)-(trifluoromethyl)pyrazolylbenzenesulfonamides and their effects on a pathological pain model in mice” (Eur J Med Chem, 2015)
